Experimental data published in US8426408B2, “Pyrimidine inhibitors of kinases” (AbbVie Inc., priority 2009, dated 2013).

Legend:
Format in all cases: biochemical
Aurora B = target: T1, Aurora B (Homo sapiens, UniProt Q96GD4); experiment: Aurora B enzyme inhibition (time-resolved fluorescence, histone H3 peptide); details: 1 mM ATP
T1 construct: Active Aurora B enzyme (recombinant residues 1-344)
Procedure: To determine Aurora B activity of representative compounds of the invention, Active Aurora B enzyme (recombinant residues 1-344) and INCENP (recombinant GST fusion protein (Upstate)) were incubated in wells of a 384 well plate with biotinylated histone H3 peptide residues 1-21 (Upstate), 1 mM ATP, and various concentrations of inhibitors in a HEPES buffer, pH 7.4 containing MgCl2, sodium othrovanadate, and Triton X-100. After 1 hour, the reaction was stopped with EDTA and anti-phospho-histone H3 Europium Cryptate (Cis-Bio) and SA-APC (Phycolink, Prozyme) were added to detect the phosphopeptide. The amount of phosphorylation was determined by the time-resolved fluorescence ratio of signals at 665 nm and 615 nm. The IC50's were calculated by an exponential fit of the inhibition values with the inhibitor concentrations using Assay Explorer software.

Aurora A = target: T2, Aurora A (Homo sapiens, UniProt O14965); experiment: Aurora A enzyme inhibition (time-resolved fluorescence, STK substrate-2); details: 1 mM ATP
T2 sequence (O14965 1-403): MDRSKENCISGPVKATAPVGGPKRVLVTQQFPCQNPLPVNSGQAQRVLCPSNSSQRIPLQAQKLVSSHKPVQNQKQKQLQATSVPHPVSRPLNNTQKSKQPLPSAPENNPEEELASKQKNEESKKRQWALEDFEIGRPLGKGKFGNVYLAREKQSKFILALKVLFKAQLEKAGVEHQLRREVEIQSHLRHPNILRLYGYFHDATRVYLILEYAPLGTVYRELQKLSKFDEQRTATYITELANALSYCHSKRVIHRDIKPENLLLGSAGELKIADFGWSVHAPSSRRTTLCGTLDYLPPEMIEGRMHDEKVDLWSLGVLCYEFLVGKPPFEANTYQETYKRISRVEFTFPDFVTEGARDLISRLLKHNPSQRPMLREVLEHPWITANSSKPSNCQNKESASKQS
Procedure: To determine Aurora A and C activity of representative compounds of the invention, Active Aurora A or C enzyme was incubated in wells of a 384 well plate with biotinylated STK substrate-2 (Upstate), 1 mM ATP, and various concentrations of inhibitors in a Hepes buffer, pH 7.4 containing MgCl2, sodium othrovanadate, and Triton X-100. After 1 hour, the reaction was stopped with EDTA and anti-phospho-STK antibody Europium Cryptate (Upstate) and SA-XL665 (Upstate) were added to detect the phosphopeptide. The amount of phosphorylation was determined by the time-resolved fluorescence ratio of signals at 665 nm and 615 nm. The IC50s were calculated by an exponential fit of the inhibition values with the inhibitor concentrations using Assay Explorer software.

KDR = KDR (Homo sapiens, UniProt P35968); experiment: KDR HTRF in vitro kinase assay; design: purified enzyme (His6-KDR 789-1354, MW 63 kD); His6 (N); details: 1 mM ATP; read-out: KDR enzyme inhibition data (Ki)
Procedure: To determine the activity of the various kinases, a homogenous time-resolved fluorescence (HTRF) in vitro kinase assay was used. (Mathis, G., HTRF® Technology. J Biomol Screen, 1999. 4(6): p. 309-314; Alfred J. Kolb, Paul V. Kaplita, David J. Hayes, Young-Whan Park, Christine Pernell, John S. Major and Gerard Mathis, Drug Discovery Today, 1998, 3, 333-342.)
For example for KDR, 7 ng/well of purified enzyme (His6-KDR 789-1354, MW 63 kD) was mixed with 0.5 μM N-biotinylated substrate (Biotin-Ahx-AEEEYFFLA-amide (SEQ. ID. 1)), various concentrations of inhibitor in reaction buffer (50 mM HEPES, pH 7.1, 10 mM MgCl2, 2 mM MnCl2, 0.1% BSA and 1 mM DTT, 40 L final volume), ATP (1 mM final conc.) in a black 384-well plate. After 60 minutes incubation at room temperature, the reaction was quenched by addition of a buffered EDTA solution (final approximate concentrations: 30 mM EDTA, 0.1% BSA, 0.1% Triton X-100 and 0.24M KF) and a solution of revelation agents (to give 0.084 ng/well streptavidin-XL-665 (Cis-Bio) and 6.5 ng/well antiphsophotyrosine mAb PT66-K Europium kryptate) was added to the reaction mixture. The quenched reaction was allowed to stand at room temperature for 3 hours and was then read in a time-resolved fluorescence detector (InVision, Perkin-Elmer) at 620 nm and 665 nm sequentially with excitation. The ratio between the signal of 620 nm and 665 nm was used in the calculation of the IC50.

KDR, sequence (P35968 789-1354): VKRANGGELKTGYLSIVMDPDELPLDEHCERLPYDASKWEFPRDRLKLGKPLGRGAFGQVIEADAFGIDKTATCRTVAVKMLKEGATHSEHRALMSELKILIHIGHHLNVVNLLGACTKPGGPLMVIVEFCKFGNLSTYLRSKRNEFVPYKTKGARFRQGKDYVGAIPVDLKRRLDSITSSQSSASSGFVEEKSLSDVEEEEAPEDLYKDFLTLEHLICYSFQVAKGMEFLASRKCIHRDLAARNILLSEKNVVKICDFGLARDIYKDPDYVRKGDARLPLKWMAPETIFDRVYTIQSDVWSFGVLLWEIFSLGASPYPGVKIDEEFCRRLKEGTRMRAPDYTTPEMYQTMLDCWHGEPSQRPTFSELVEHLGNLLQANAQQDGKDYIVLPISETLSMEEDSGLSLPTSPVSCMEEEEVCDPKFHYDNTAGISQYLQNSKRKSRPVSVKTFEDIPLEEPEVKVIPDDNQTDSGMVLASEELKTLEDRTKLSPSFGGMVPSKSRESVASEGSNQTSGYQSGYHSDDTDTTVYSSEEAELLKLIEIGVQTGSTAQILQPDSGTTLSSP
T1 sequence (Q96GD4 whole entry, the tested form may be a part): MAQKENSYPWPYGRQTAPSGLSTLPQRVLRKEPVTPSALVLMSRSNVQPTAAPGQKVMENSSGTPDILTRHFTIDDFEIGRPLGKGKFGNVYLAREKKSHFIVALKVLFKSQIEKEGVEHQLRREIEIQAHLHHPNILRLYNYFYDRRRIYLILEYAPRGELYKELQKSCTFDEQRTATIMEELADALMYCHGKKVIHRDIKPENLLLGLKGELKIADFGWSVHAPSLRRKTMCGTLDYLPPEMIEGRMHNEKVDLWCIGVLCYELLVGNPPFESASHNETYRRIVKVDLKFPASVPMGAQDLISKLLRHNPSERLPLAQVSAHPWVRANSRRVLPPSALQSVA
T1 sequence (Q9NQS7 826-918 partner limits assumed): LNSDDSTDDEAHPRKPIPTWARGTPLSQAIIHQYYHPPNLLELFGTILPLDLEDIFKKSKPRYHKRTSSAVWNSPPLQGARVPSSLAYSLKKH

How did the Ki (Aurora B) turn out when `CN(C)CCn1cc(Nc2ncc(Cl)c(N[C@@H]3[C@H](C(N)=O)[C@H]4C=C[C@@H]3C4)n2)cn1.CN(C)CCn1cc(Nc2ncc(Cl)c(N[C@H]3[C@@H](C(N)=O)[C@@H]4C=C[C@H]3C4)n2)cn1` (mixture of isomers) [Example 33, (1S,2S,3R,4R)-3-{[5-chloro-2-({1-[2-(dimethylamino)ethyl]-1H-pyrazol-4-yl}amino)pyrimidin-4-yl]amino}bicyclo[2.2.1]hept-5-ene-2-carboxamide and (1R,2R,3S,4S)-3-{[5-chloro-2-({1-[2-(dimethylamino)ethyl]-1H-pyrazol-4-yl}amino)pyrimidin-4-yl]amino}bicyclo[2.2.1]hept-5-ene-2-carboxamide] was run?
Its Ki is less than 100 nM.

What about the Ki (Aurora A) of the same compound?
The Ki was less than 100 nM.

And the Ki (KDR)?
The Ki was less than 100 nM.

For `NC(=O)[C@@H]1[C@H](Nc2nc(Nc3cnn(CCN4CCCC4)c3)ncc2F)[C@H]2C=C[C@@H]1C2.NC(=O)[C@H]1[C@@H](Nc2nc(Nc3cnn(CCN4CCCC4)c3)ncc2F)[C@@H]2C=C[C@H]1C2` (mixture of isomers) [Example 45, (1S,2S,3R,4R)-3-[(5-fluoro-2-{[1-(2-pyrrolidin-1-ylethyl)-1H-pyrazol-4-yl]amino}pyrimidin-4-yl)amino]bicyclo[2.2.1]hept-5-ene-2-carboxamide and (1R,2R,3S,4S)-3-[(5-fluoro-2-{[1-(2-pyrrolidin-1-ylethyl)-1H-pyrazol-4-yl]amino}pyrimidin-4-yl)amino]bicyclo[2.2.1]hept-5-ene-2-carboxamide], which Ki (Aurora B) is on record?
The Ki was less than 100 nM.

What about the Ki (Aurora A) of the same compound?
The Ki was less than 100 nM.

And the Ki (KDR)?
Its Ki is less than 100 nM.

Which results are given for `NC(=O)[C@@H]1[C@H](Nc2nc(Nc3cnn([C@H]4CCCNC4)c3)ncc2Cl)[C@H]2C=C[C@@H]1C2` [Example 83, (1S,2S,3R,4R)-3-{[5-chloro-2-({1-[(3S)-piperidin-3-yl]-1H-pyrazol-4-yl}amino)pyrimidin-4-yl]amino}bicyclo[2.2.1]hept-5-ene-2-carboxamide]?
Ki (Aurora B): < 100 nM; Ki (Aurora A): < 100 nM; Ki (KDR): < 100 nM

With “(1S,2S,3R,4R)—N-cyclopropyl-3-{[2-[(1-methyl-1H-pyrazol-4-yl)amino]-5-(trifluoromethyl)pyrimidin-4-yl]amino}bicyclo[2.2.1]hept-5-ene-2-carboxamide and (1R,2R,3S,4S)—N-cyclopropyl-3-{[2-[(1-methyl-1H-pyrazol-4-yl)amino]-5-(trifluoromethyl)pyrimidin-4-yl]amino}bicyclo[2.2.1]hept-5-ene-2-carboxamide [Example 70]” as the compound, how does the Ki (Aurora B) read?
Its Ki is less than 100 nM.

What about the Ki (Aurora A) of the same compound?
The Ki was less than 100 nM.

What about the Ki (KDR) of the same compound?
The Ki was less than 100 nM.

`NC(=O)Cn1cc(Nc2ncc(Br)c(N[C@H]3[C@@H](C(N)=O)[C@@H]4C=C[C@H]3C4)n2)cn1` [Example 76, (1S,2S,3R,4R)-3-[(2-{[1-(2-amino-2-oxoethyl)-1H-pyrazol-4-yl]amino}-5-bromopyrimidin-4-yl)amino]bicyclo[2.2.1]hept-5-ene-2-carboxamide] was tested. Which Ki (Aurora B) did it give?
Its Ki is less than 100 nM.

And the Ki (Aurora A)?
Its Ki is less than 100 nM.

And the Ki (KDR)?
The Ki was less than 100 nM.

Which Ki (Aurora B) does the source give for `CCn1cc(Nc2ncc(Cl)c(N[C@@H]3[C@H]4CC[C@H](C4)[C@@H]3C(N)=O)n2)cn1.CCn1cc(Nc2ncc(Cl)c(N[C@H]3[C@@H]4CC[C@@H](C4)[C@H]3C(N)=O)n2)cn1` (mixture of isomers) [Example 57, (1R,2S,3R,4S)-3-({5-chloro-2-[(1-ethyl-1H-pyrazol-4-yl)amino]pyrimidin-4-yl}amino)bicyclo[2.2.1]heptane-2-carboxamide and (1S,2R,3S,4R)-3-({5-chloro-2-[(1-ethyl-1H-pyrazol-4-yl)amino]pyrimidin-4-yl}amino)bicyclo[2.2.1]heptane-2-carboxamide] here?
The Ki was less than 100 nM.

And the Ki (Aurora A)?
Its Ki is less than 100 nM.

And the Ki (KDR)?
The Ki was less than 100 nM.

With `Cn1cc(Nc2ncc(F)c(N[C@@H]3C[C@H]4CC[C@@H]3C4)n2)cn1.Cn1cc(Nc2ncc(F)c(N[C@H]3C[C@@H]4CC[C@H]3C4)n2)cn1` (mixture of isomers) [Example 3, N^4-[(1S,2S,4R)-bicyclo[2.2.1]hept-2-yl]-5-fluoro-N^2-(1-methyl-1H-pyrazol-4-yl)pyrimidine-2,4-diamine and N^4-[(1R,2R,4S)-bicyclo[2.2.1]hept-2-yl]-5-fluoro-N^2-(1-methyl-1H-pyrazol-4-yl)pyrimidine-2,4-diamine] as the compound, how does the Ki (Aurora B) read?
The Ki was 100 to 1000 nM.

And the Ki (Aurora A)?
Its Ki is 1000 to 5000 nM.

And the Ki (KDR)?
Its Ki is 1000 to 5000 nM.

With `Cn1cc(Nc2ncc(F)c(N[C@@H]3CCC[C@@H]3C(N)=O)n2)cn1.Cn1cc(Nc2ncc(F)c(N[C@H]3CCC[C@H]3C(N)=O)n2)cn1` (mixture of isomers) [Example 4, (1S,2R)-2-({5-fluoro-2-[(1-methyl-1H-pyrazol-4-yl)amino]pyrimidin-4-yl}amino)cyclopentanecarboxamide and (1R,2S)-2-({5-fluoro-2-[(1-methyl-1H-pyrazol-4-yl)amino]pyrimidin-4-yl}amino)cyclopentanecarboxamide] as the compound, how does the Ki (Aurora B) read?
Its Ki is 100 to 1000 nM.

And the Ki (Aurora A)?
The Ki was greater than 5000 nM.

And the Ki (KDR)?
Its Ki is greater than 5000 nM.

Which Ki (Aurora B) does the source give for `NC(=O)[C@@H]1[C@H](Nc2nc(Nc3cnn(CC(F)(F)F)c3)ncc2C(F)(F)F)[C@H]2C=C[C@@H]1C2` [Example 64, (1S,2S,3R,4R)-3-{[2-{[1-(2,2,2-trifluoroethyl)-1H-pyrazol-4-yl]amino}-5-(trifluoromethyl)pyrimidin-4-yl]amino}bicyclo[2.2.1]hept-5-ene-2-carboxamide] here?
Its Ki is less than 100 nM.

And the Ki (Aurora A)?
The Ki was less than 100 nM.

And the Ki (KDR)?
Its Ki is less than 100 nM.

What does the source list for `NC(=O)[C@@H]1[C@H](Nc2nc(Nc3cnn([C@@H]4CCNC4)c3)ncc2Cl)[C@H]2C=C[C@@H]1C2` [Example 73, (1S,2S,3R,4R)-3-{[5-chloro-2-({1-[(3R)-pyrrolidin-3-yl]-1H-pyrazol-4-yl}amino)pyrimidin-4-yl]amino}bicyclo[2.2.1]hept-5-ene-2-carboxamide]?
Ki (Aurora B): < 100 nM; Ki (Aurora A): < 100 nM; Ki (KDR): < 100 nM

With `Cn1cc(Nc2ncc(Cl)c(N[C@@H]3CCC[C@@H]3C(N)=O)n2)cn1.Cn1cc(Nc2ncc(Cl)c(N[C@H]3CCC[C@H]3C(N)=O)n2)cn1` (mixture of isomers) [Example 43, (1S,2R)-2-({5-chloro-2-[(1-methyl-1H-pyrazol-4-yl)amino]pyrimidin-4-yl}amino)cyclopentanecarboxamide and (1R,2S)-2-({5-chloro-2-[(1-methyl-1H-pyrazol-4-yl)amino]pyrimidin-4-yl}amino)cyclopentanecarboxamide] as the compound, how does the Ki (Aurora B) read?
The Ki was less than 100 nM.

What about the Ki (Aurora A) of the same compound?
Its Ki is less than 100 nM.

What about the Ki (KDR) of the same compound?
Its Ki is less than 100 nM.

For `CNC(=O)Cn1cc(Nc2ncc(Cl)c(NC3C4CCC(C4)C3C(N)=O)n2)cn1` (racemic) [Example 61, (1R,2S,3R,4S)-3-{[5-chloro-2-({1-[2-(methylamino)-2-oxoethyl]-1H-pyrazol-4-yl}amino)pyrimidin-4-yl]amino}bicyclo[2.2.1]heptane-2-carboxamide and (1S,2R,3S,4R)-3-{[5-chloro-2-({1-[2-(methylamino)-2-oxoethyl]-1H-pyrazol-4-yl}amino)pyrimidin-4-yl]amino}bicyclo[2.2.1]heptane-2-carboxamide], which Ki (Aurora B) is on record?
The Ki was less than 100 nM.

What about the Ki (Aurora A) of the same compound?
The Ki was less than 100 nM.

And the Ki (KDR)?
Its Ki is less than 100 nM.
